Molecular target: recombinant human SYK (GST-hSYK fusion protein) (Homo sapiens, UniProt P43405)
Test: biochemical
Conditions: rhSYK Activity (IC50), recombinant human GST-SYK 5 pM, ATP 25 μM, biotinylated substrate peptide 250 nM, HTRF, 10-dose titration
Text: Homogeneous Time-Resolved Fluorescence (HTRF) Assay for the Recombinant Human SYK Enzyme:

For `Cc1cc(Nc2nccc(C(F)(F)F)n2)cc(-c2cnc(CNC(C)(C)CC(C)O)s2)c1` (stereo not drawn) [Example 88A-45], the IC50 was < 100 nM.
With `Cc1cc(Nc2nccc(C(F)(F)F)n2)cc(-c2cnc(CNCC3(CO)COC3)s2)c1` [Example 88A-46] the IC50 was < 100 nM.
For `Cc1cc(Nc2nccc(C(F)(F)F)n2)cc(-c2cnc(CNC(CO)(CO)CO)s2)c1` [Example 88A-47], the IC50 was < 100 nM.
`Cc1cc(Nc2nccc(C(F)(F)F)n2)cc(-c2cnc(CNCC3(CO)CCOCC3)s2)c1` [Example 88A-49] was tested, and the IC50 was < 100 nM.
In the case of `Cc1cc(Nc2nccc(C(F)(F)F)n2)cc(-c2cnc(CNCCCN(CCO)CCO)s2)c1` [Example 88A-51], the IC50 is reported as < 100 nM.
In the case of `Cc1cc(Nc2nccc(C(F)(F)F)n2)cc(-c2cnc(CN(CCO)CCS(=O)(=O)O)s2)c1` [Example 88A-52], the IC50 is reported as < 100 nM.
With `Cc1cc(Nc2nccc(C(F)(F)F)n2)cc(-c2cnc(CN(C)C3COCC3O)s2)c1` (stereo not drawn) [Example 88A-54] the IC50 was < 100 nM.
With `Cc1cc(Nc2nccc(C(F)(F)F)n2)cc(-c2cnc(CNC3(C)CCCCC3CO)s2)c1` (stereo not drawn) [Example 88A-55] the IC50 was < 100 nM.
For `Cc1cc(Nc2nccc(C(F)(F)F)n2)cc(-c2cnc(CNC3CS(=O)(=O)CC3O)s2)c1` (stereo not drawn) [Example 88A-57], the IC50 was < 100 nM.
For `CCN(Cc1ncc(-c2cc(C)cc(Nc3nccc(C(F)(F)F)n3)c2)s1)C1CS(=O)(=O)CC1O` (stereo not drawn) [Example 88A-58], the IC50 was < 100 nM.
In the case of `CNC(=O)NCc1ncc(-c2cc(C)cc(Nc3nccc(C(F)(F)F)n3)c2)s1` [Example 88A-61], the IC50 is reported as < 100 nM.
With `CCNC(=O)NCc1ncc(-c2cc(C)cc(Nc3nccc(C(F)(F)F)n3)c2)s1` [Example 88A-62] the IC50 was < 100 nM.
In the case of `Cc1cc(Nc2nccc(C(F)(F)F)n2)cc(-c2cnc(CNC(=O)NC(C)C)s2)c1` [Example 88A-63], the IC50 is reported as < 100 nM.
For `CCOC(=O)C(C)NC(=O)NCc1ncc(-c2cc(C)cc(Nc3nccc(C(F)(F)F)n3)c2)s1` (stereo not drawn) [Example 88A-64], the IC50 was < 100 nM.
With `Cc1cc(Nc2nccc(C(F)(F)F)n2)cc(-c2cnc(CN3CCCC(C)(O)C3)s2)c1` (stereo not drawn) [Example 88B-1] the IC50 was < 100 nM.
In the case of `Cc1cc(Nc2nccc(C(F)(F)F)n2)cc(-c2cnc(CN3CCC(C)(O)C3)s2)c1` (stereo not drawn) [Example 88B-2], the IC50 is reported as < 100 nM.
With `Cc1cc(Nc2nccc(C(F)(F)F)n2)cc(-c2cnc(CN3CC[S+]([O-])CC3)s2)c1` [Example 88B-3] the IC50 was < 100 nM.
In the case of `Cc1cc(Nc2nccc(C(F)(F)F)n2)cc(-c2cnc(CN3CCC[S+]([O-])CC3)s2)c1` (stereo not drawn) [Example 88B-4], the IC50 is reported as < 100 nM.
With `Cc1cc(Nc2nccc(C(F)(F)F)n2)cc(-c2cnc(CN3CCC(C)(O)CC3)s2)c1` [Example 88B-5] the IC50 was < 100 nM.
`CC(=O)N1CCN(Cc2ncc(-c3cc(C)cc(Nc4nccc(C(F)(F)F)n4)c3)s2)CC1` [Example 88B-6] was tested, and the IC50 was < 100 nM.
For `Cc1cc(Nc2nccc(C(F)(F)F)n2)cc(-c2cnc(CN3CCNC(=O)CC3)s2)c1` [Example 88B-7], the IC50 was < 100 nM.
In the case of `Cc1cc(Nc2nccc(C(F)(F)F)n2)cc(-c2cnc(CN3CCCNC(=O)C3)s2)c1` [Example 88B-8], the IC50 is reported as < 100 nM.
In the case of `Cc1cc(Nc2nccc(C(F)(F)F)n2)cc(-c2cnc(CN3CCN(S(C)(=O)=O)CC3)s2)c1` [Example 88B-9], the IC50 is reported as < 100 nM.
`Cc1cc(Nc2nccc(C(F)(F)F)n2)cc(-c2cnc(CN3CCCC(C(N)=O)C3)s2)c1` (stereo not drawn) [Example 88B-10] was tested, and the IC50 was < 100 nM.
`Cc1cc(Nc2nccc(C(F)(F)F)n2)cc(-c2cnc(CN3CCOC(CCO)C3)s2)c1` (stereo not drawn) [Example 88B-11] was tested, and the IC50 was < 100 nM.
`COCC1CN(Cc2ncc(-c3cc(C)cc(Nc4nccc(C(F)(F)F)n4)c3)s2)CCO1` (stereo not drawn) [Example 88B-13] was tested, and the IC50 was < 100 nM.
In the case of `Cc1cc(Nc2nccc(C(F)(F)F)n2)cc(-c2cnc(CN3CCOC(CC(=O)O)C3)s2)c1` (stereo not drawn) [Example 88B-14], the IC50 is reported as < 100 nM.
`Cc1cc(Nc2nccc(C(F)(F)F)n2)cc(-c2cnc(CN3CCC(P(=O)(O)O)C3)s2)c1` (stereo not drawn) [Example 88B-15] was tested, and the IC50 was < 100 nM.
With `Cc1cc(Nc2nccc(C(F)(F)F)n2)cc(-c2cnc(CN3CC(COP(C)(C)=O)C3)s2)c1` [Example 88B-16] the IC50 was < 100 nM.
`Cc1cc(Nc2nccc(C(F)(F)F)n2)cc(-c2cnc(CN3CCP(=O)(C(C)C)CC3)s2)c1` [Example 88B-17] was tested, and the IC50 was < 100 nM.
With `Cc1cc(Nc2nccc(C(F)(F)F)n2)cc(-c2cnc(CO)s2)c1` [Example 89, [5-(3-methyl-5-{[4-(trifluoromethyl)pyrimidin-2-yl]amino}phenyl)-1,3-thiazol-2-yl]methanol] the IC50 was < 100 nM.
With `Cc1cc(Nc2nccc(C(F)(F)F)n2)cc(-c2cnc(CBr)s2)c1` [Example 90, N-{3-[2-(bromomethyl)-1,3-thiazol-5-yl]-5-methylphenyl}-4-(trifluoromethyl)pyrimidin-2-amine] the IC50 was < 100 nM.
`CCOC(=O)C1(Cc2ncc(-c3cc(C)cc(Nc4nccc(C(F)(F)F)n4)c3)s2)CCNC1=O` (stereo not drawn) [Example 91, Ethyl 3-{[5-(3-methyl-5-{[4-(trifluoromethyl)pyrimidin-2-yl]amino}phenyl)-1,3-thiazol-2-yl]-methyl}-2-oxopyrrolidine-3-carboxylate] was tested, and the IC50 was < 100 nM.
With `Cc1cc(Nc2nccc(C(F)(F)F)n2)cc(-c2cnc(CC3(C(=O)O)CCNC3=O)s2)c1` (stereo not drawn) [Example 92, 3-{[5-(3-methyl-5-{[4-(trifluoromethyl)pyrimidin-2-yl]amino}phenyl)-1,3-thiazol-2-yl]methyl}-2-oxopyrrolidine-3-carboxylic acid] the IC50 was < 100 nM.
For `Cc1cc(Nc2nccc(C(F)(F)F)n2)cc(-c2cnc(CN3CCOC3=O)s2)c1` [Example 92-1], the IC50 was < 100 nM.
With `Cc1cc(Nc2nccc(C(F)(F)F)n2)cc(-c2cnc(CN3CCCC3=O)s2)c1` [Example 92-2] the IC50 was < 100 nM.
In the case of `Cc1cc(Nc2nccc(C(F)(F)F)n2)cc(-c2cnc(CN3CCN(C)C3=O)s2)c1` [Example 92-3], the IC50 is reported as < 100 nM.
`Cc1cc(Nc2nccc(OC3CNC3)n2)cc(-c2cnc(C3(O)CCC3)s2)c1` [Example 93, 1-[5-(3-{[4-(azetidin-3-yloxy)pyrimidin-2-yl]amino}-5-methylphenyl)-1,3-thiazol-2-yl]cyclobutanol] was tested, and the IC50 was < 100 nM.
In the case of `Cc1cc(Nc2nccc(OC3COC3)n2)cc(-c2cnc(C3(O)CCC3)s2)c1` [Example 94, 1-[5-(3-methyl-5-{[4-(oxetan-3-yloxy)pyrimidin-2-yl]amino}phenyl)-1,3-thiazol-2-yl]cyclobutanol], the IC50 is reported as < 100 nM.
With `Cc1cc(Nc2nccc(OCc3ccncc3)n2)cc(-c2cnc(C3(O)CCC3)s2)c1` [Example 94A-1] the IC50 was < 100 nM.
With `Cc1cc(Nc2nccc(OCc3cccnc3)n2)cc(-c2cnc(C3(O)CCC3)s2)c1` [Example 94A-2] the IC50 was < 100 nM.
With `Cc1cc(Nc2nccc(OCc3ccccn3)n2)cc(-c2cnc(C3(O)CCC3)s2)c1` [Example 94A-3] the IC50 was < 100 nM.
In the case of `Cc1cc(Nc2nccc(OCC3COCCO3)n2)cc(-c2cnc(C3(O)CCC3)s2)c1` (stereo not drawn) [Example 94A-4], the IC50 is reported as < 100 nM.
In the case of `Cc1cc(Nc2nccc(OCCC3CCOCC3)n2)cc(-c2cnc(C3(O)CCC3)s2)c1` [Example 94A-5], the IC50 is reported as < 100 nM.
An IC50 of 100 to 1000 nM was found for `Cc1cc(Nc2ncc(F)c(OC3CCOC3)n2)cc(-c2cnc(C3(O)CCC3)s2)c1` (stereo not drawn) [Example 94A-6] in this work.
`Cc1cc(Nc2nccc(OCC3CCOCC3)n2)cc(-c2cnc(C3(O)CCC3)s2)c1` [Example 94A-7] was tested, and the IC50 was < 100 nM.
For `Cc1cc(Nc2nccc(O[C@@H]3CCOC3)n2)cc(-c2cnc(C3(O)CCC3)s2)c1` [Example 94A-8], the IC50 was < 100 nM.
An IC50 of 100 to 1000 nM was found for `Cc1cc(Nc2nccc(OCCOCc3ccccc3)n2)cc(-c2cnc(C3(O)CCC3)s2)c1` [Example 94A-9] in this work.
For `Cc1cc(Nc2nccc(O[C@H]3CCOC3)n2)cc(-c2cnc(C3(O)CCC3)s2)c1` [Example 94A-10], the IC50 was < 100 nM.
An IC50 of 100 to 1000 nM was found for `Cc1cc(Nc2nccc(OCCCCOCc3ccccc3)n2)cc(-c2cnc(C3(O)CCC3)s2)c1` [Example 94A-11] in this work.
For `COCCCOc1ccnc(Nc2cc(C)cc(-c3cnc(C4(O)CCC4)s3)c2)n1` [Example 94A-12], the IC50 was < 100 nM.
An IC50 of 100 to 1000 nM was found for `Cc1cc(Nc2nccc(OCCCOCc3ccccc3)n2)cc(-c2cnc(C3(O)CCC3)s2)c1` [Example 94A-13] in this work.
For `COCCOc1ccnc(Nc2cc(C)cc(-c3cnc(C4(O)CCC4)s3)c2)n1` [Example 94A-14], the IC50 was < 100 nM.
In the case of `Cc1cc(Nc2nccc(OCC3CCOC3)n2)cc(-c2cnc(C3(O)CCC3)s2)c1` (stereo not drawn) [Example 94A-15], the IC50 is reported as < 100 nM.
An IC50 of 100 to 1000 nM was found for `CCOC(=O)C1CCC(Oc2ccnc(Nc3cc(C)cc(-c4cnc(C5(O)CCC5)s4)c3)n2)CC1` (stereo not drawn) [Example 94A-16, ethyl 4-{[2-({3-[2-(1-hydroxycyclobutyl)-1,3-thiazol-5-yl]-5-methylphenyl}-amino)pyrimidin-4-yl]oxy}cyclohexanecarboxylate] in this work.
With `Cc1cc(Nc2nccc(OC3CCOCC3)n2)cc(-c2cnc(C3(O)CCC3)s2)c1` [Example 94A-17] the IC50 was < 100 nM.
In the case of `Cc1cc(Nc2nccc(OC3CCC(N)CC3)n2)cc(-c2cnc(C3(O)CCC3)s2)c1` (stereo not drawn) [Example 94A-18], the IC50 is reported as < 100 nM.
`Cc1cc(Nc2nccc(OC3CCNC(C)CC3)n2)cc(-c2cnc(C3(O)CCC3)s2)c1` (stereo not drawn) [Example 94A-20] was tested, and the IC50 was < 100 nM.
`Cc1cc(Nc2nccc(OC3CCCNCC3)n2)cc(-c2cnc(C3(O)CCC3)s2)c1` (stereo not drawn) [Example 94A-21] was tested, and the IC50 was < 100 nM.
An IC50 of 100 to 1000 nM was found for `Cc1cc(Nc2nccc(O[C@H](C)C(=O)O)n2)cc(-c2cnc(C3(O)CCC3)s2)c1` [Example 94A-22] in this work.
An IC50 of 100 to 1000 nM was found for `CNCCOc1ccnc(Nc2cc(C)cc(-c3cnc(C4(O)CCC4)s3)c2)n1` [Example 94A-23] in this work.
An IC50 of 100 to 1000 nM was found for `Cc1cc(Nc2nccc(OCC3CCNCC3)n2)cc(-c2cnc(C3(O)CCC3)s2)c1` [Example 94A-24] in this work.
An IC50 of 100 to 1000 nM was found for `Cc1cc(Nc2nccc(OC(C)(C)C(=O)OC(C)(C)C)n2)cc(-c2cnc(C3(O)CCC3)s2)c1` [Example 94A-25, tert-butyl 2-{[2-({3-[2-(1-hydroxycyclobutyl)-1,3-thiazol-5-yl]-5-methylphenyl}amino)-pyrimidin-4-yl]oxy}-2-methylpropanoate] in this work.
For `Cc1cc(Nc2nccc(OC3CCCNC3)n2)cc(-c2cnc(C3(O)CCC3)s2)c1` (stereo not drawn) [Example 94A-26], the IC50 was < 100 nM.
For `Cc1cc(Nc2nccc(OCC3CNC3)n2)cc(-c2cnc(C3(O)CCC3)s2)c1` [Example 94A-27], the IC50 was < 100 nM.
For `Cc1cc(Nc2nccc(OC3CCOC3)n2)cc(-c2cnc(C3(O)CCC3)s2)c1` (stereo not drawn) [Example 94A-29], the IC50 was < 100 nM.

Source: patent publication US8551984B2, “Aminopyrimidines as SYK inhibitors” (Merck Sharp & Dohme Corp., priority 2009, dated 2013)
